Measured values from US20240352000A1, “NOVEL PYRIMIDINE-2,4-DIAMINE DERIVATIVES, PREPARATION METHOD THEREFOR, AND PHARMACEUTICAL COMPOSITION CONTAINING SAME AS ACTIVE INGREDIENT FOR PREVENTION OR TREATMENT OF CANCER” (KOREA RESEARCH INSTITUTE OF CHEMICAL TECHNOLOGY, priority 2021, published 2024).

How the values were obtained:
Ba/F3 EGFR del19 = test: CellTiter-Glo cell viability, Ba/F3 EGFR del19; format: cell-based; conditions: 72 hours
Experimental: (§1) An experiment to measure the activity of the compounds of the present invention against the mutant Ba/F3 EGFR cell line was performed as follows using the CellTiter-Glo system sold by Promega. The CellTiter-Glo assay is a method to confirm the cell viability by measuring ATP present in cells in cell culture. For the Ba/F3 EGFR del19, Ba/F3 EGFR del19/T790M, Ba/F3 del19/T790M/C797S mutant cell line, a cell line provided by Crown Bioscience was purchased and used. The Ba/F3 EGFR del19, Ba/F3 EGFR del19/T790M, Ba/F3 del19/T790M/C797S mutant cell line was cultured in RPMI containing 10% FBS and 1% penicillin-streptomycin with 1 μg of puromycin in an incubator at 37° C. and 5% CO2.
(§2) Analysis of the inhibitory ability effect of the compounds against EGFR was conducted according to the following analysis reaction recipe.
(§3) 2500 cells/90 μL were passaged and cultured in a 96-well cell culture plate, and after 24 hours, treated with the compound represented by Formula 1 at a concentration of 0, 0.01, 0.03, 0.1, 0.3, 1, 3, and 10 (μM). After reaction for 72 hours, the plate treated with the compound was left at room temperature for 30 minutes, then further treated with 100 μl of reagent, and shaken at room temperature for 10 minutes. Finally, the ratio of fluorescence values at 570 nm was obtained using the equipment to quantitatively measure and confirmed the inhibitory ability of the compounds. The measurement values measured at eight compound concentrations were analyzed using the Prism program (version 5.01, Graphpad Software, Inc.), and the IC50 value, which is an indicator of the inhibitory ability of the compound, was calculated.

[1] = tested on: Ba/F3 EGFR L858R/T790M/C797S; test: CellTiter-Glo cell viability, Ba/F3 EGFR L858R/T790M/C797S; format: cell-based; conditions: 72 hours
Experimental: (§4) An experiment to measure the activity of the compounds of the present invention against the mutant Ba/F3 EGFR cell line was performed as follows using the CellTiter-Glo system sold by Promega. The CellTiter-Glo assay is a method to confirm the cell viability by measuring ATP present in cells in cell culture. The Ba/F3 EGFR L858R, Ba/F3 EGFR L858R/T790M, Ba/F3 EGFR L858R/T790M/C797S mutant cell line was used. The Ba/F3 EGFR L858R, Ba/F3 EGFR L858R/T790M, and Ba/F3 EGFR L858R/T790M/C797S mutant cell lines was cultured in RPMI containing 10% FBS and 1% penicillin-streptomycin with 1 μg of puromycin in an incubator at 37° C. and 5% CO2.
as §2
as §3, with “μl” for “μL”

Ba/F3 EGFR del19/T790M = test: CellTiter-Glo cell viability, Ba/F3 EGFR del19/T790M; format: cell-based; conditions: 72 hours
Experimental: as §1, §2, §3

HER2 A775_G776insYVMA = HER2 A775_G776insYVMA (Homo sapiens (Human), UniProt P04626, INS775YVMA); test: HTRF enzyme assay, HER2 mutant enzyme; format: biochemical; conditions: recombinant enzyme, 37° C. 2 hours
Experimental: An experiment to measure the activity of the compounds of the present invention against HER mutant enzymes was performed as follows using the HTRF system sold by Cisbio. For the HER2 mutant enzyme, HER2 A775_G776insYVMA mutant enzyme, a recombinant protein provided by Carna Biosciences was purchased and used.
(§5) The composition of the assay buffer used for measuring the activity was 50 mM Tris-HCl pH 7.5, 100 mM NaCl, 7.5 mM MgCl2, 3 mM KCl, 0.01% Tween 20, 0.1% BSA, and 1 mM DTT. Here, an enzyme reaction was performed using with ATP at a concentration of […] and a peptide substrate labeled biotin at a concentration of […]. Analysis of the inhibitory effect of the compounds against the HER2 A775_G776insYVMA mutant activity was conducted according to the following analysis reaction recipe. • Component 1: 4 μL of a HER2 A775_G776insYVMA mutant enzyme • Component 2: 2 μL of a compound solution • Component 3: 4 μL of ATP and a peptide labeled with biotin
(§6) The enzyme reaction was started by first mixing Component 1 and Component 2 and then adding Component 3. After reaction at 37° C. for 2 hours, […] of measurement solution consisting of streptavidin-XL665 and europium-labeled anti-phosphotyrosine antibody provided by Cisbio was added to the enzyme reaction solution and reacted at room temperature for 1 hour. Finally, the ratio of fluorescence values at 615 nm and 665 nm was obtained using the Envision equipment from Perkin-Elmer to quantitatively measure the enzyme activity and confirmed the inhibitory ability of the compounds. The measurement values measured at seven compound concentrations were analyzed using the Prism program (version 5.01, Graphpad Software, Inc.), and the IC50 value, which is an indicator of the inhibitory ability of the compound, was calculated.

[2] = tested on: Ba/F3 EGFR del19/T790M/C797S; test: CellTiter-Glo cell viability, Ba/F3 EGFR del19/T790M/C797S; format: cell-based; conditions: 72 hours
Experimental: as §1, §2, §3

EGFR del19/T790M/C797S = EGFR del19/T790M/C797S (Homo sapiens (Human), UniProt P00533, C797S/DEL746-750/T790M); test: HTRF enzyme assay, EGFR del19/T790M/C797S mutant enzyme; format: biochemical; conditions: enzyme from SignalChem, 37° C. 2 hours
Experimental: An experiment to measure the activity of the compounds of the present invention against EGFR mutant enzymes was performed as follows using the HTRF system sold by Cisbio. For the EGFR del19/T790M mutant enzyme, a recombinant protein provided by Carna Biosciences was purchased and used, and for the EGFR del19/T790M/C797S mutant enzyme, a protein provided by SignalChem was purchased and used as an enzyme source.
as §5, with “performed using ATP at” for “performed using with ATP at”, “substrate labeled with biotin at” for “substrate labeled biotin at”, “against the EGFR activity was” for “against the HER2 A775_G776insYVMA mutant activity was”, “μL of an EGFR mutant enzyme” for “μL of a HER2 A775_G776insYVMA mutant enzyme”
as §6

Ba/F3 EGFR L858R = test: CellTiter-Glo cell viability, Ba/F3 EGFR L858R; format: cell-based; conditions: 72 hours
Experimental: as §4, §2
as §3, with “μl” for “μL”

Chain of HER2 A775_G776insYVMA (P04626 other isoform, or with tags, fused parts or gaps del 1-675/ins YVMA behind 775 limits assumed): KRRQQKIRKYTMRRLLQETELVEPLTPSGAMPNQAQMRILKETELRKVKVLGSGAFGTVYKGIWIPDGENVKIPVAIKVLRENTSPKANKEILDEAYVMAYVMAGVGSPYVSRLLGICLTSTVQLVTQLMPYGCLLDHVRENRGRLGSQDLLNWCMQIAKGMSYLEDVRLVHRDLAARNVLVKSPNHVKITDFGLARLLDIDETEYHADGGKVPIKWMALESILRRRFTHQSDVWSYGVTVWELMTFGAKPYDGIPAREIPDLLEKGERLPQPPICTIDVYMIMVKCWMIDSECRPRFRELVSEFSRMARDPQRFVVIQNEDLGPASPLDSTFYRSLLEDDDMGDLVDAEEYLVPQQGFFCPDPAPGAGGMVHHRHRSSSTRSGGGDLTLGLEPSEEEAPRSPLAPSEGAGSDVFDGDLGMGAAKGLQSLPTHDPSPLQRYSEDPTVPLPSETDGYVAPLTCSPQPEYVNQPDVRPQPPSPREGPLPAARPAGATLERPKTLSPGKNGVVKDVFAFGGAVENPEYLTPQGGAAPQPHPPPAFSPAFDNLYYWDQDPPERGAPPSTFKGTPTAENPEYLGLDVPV
Chain of EGFR del19/T790M/C797S (P00533 other isoform, or with tags, fused parts or gaps T790M/C797S/del 1-694/del 746-750 limits assumed): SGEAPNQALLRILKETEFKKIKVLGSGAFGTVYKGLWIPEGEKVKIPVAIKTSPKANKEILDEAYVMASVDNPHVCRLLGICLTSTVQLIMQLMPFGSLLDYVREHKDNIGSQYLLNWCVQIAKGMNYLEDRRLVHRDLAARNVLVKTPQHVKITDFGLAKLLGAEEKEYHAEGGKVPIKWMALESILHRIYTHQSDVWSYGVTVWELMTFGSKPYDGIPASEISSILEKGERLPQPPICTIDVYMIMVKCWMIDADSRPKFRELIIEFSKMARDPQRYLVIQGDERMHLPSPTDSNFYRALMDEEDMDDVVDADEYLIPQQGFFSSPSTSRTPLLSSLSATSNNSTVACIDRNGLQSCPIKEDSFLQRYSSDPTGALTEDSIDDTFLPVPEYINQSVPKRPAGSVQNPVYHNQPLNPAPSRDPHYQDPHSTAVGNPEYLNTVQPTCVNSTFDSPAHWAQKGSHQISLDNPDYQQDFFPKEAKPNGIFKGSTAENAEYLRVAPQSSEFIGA

Compound	IC50 (Ba/F3 EGFR del19)	IC50 [1]	IC50 (Ba/F3 EGFR del19/T790M)	IC50 (HER2 A775_G776insYVMA)	IC50 [2]	IC50 (EGFR del19/T790M/C797S)	IC50 (Ba/F3 EGFR L858R)
COc1cc(N2CCC(N3CCN(C)CC3)CC2)ccc1Nc1ncc(Cl)c(Nc2cccc3c2N(S(C)(=O)=O)CC3)n1 [Example 2, 5-chloro-N2-(2-methoxy-4-(4-(4-methylpiperazin-1-yl)piperidin-1-yl)phenyl)-N4-(1-(methylsulfonyl)indolin-7-yl)pyrimidine-2,4-diamine]	< 30 nM	< 100 nM	< 100 nM	1 nM	< 100 nM	< 1 nM	< 30 nM
COc1cc(N2CCC(N3CCN(C)CC3)CC2)ccc1Nc1ncc(Cl)c(Nc2cccc3c2N(S(C)(=O)=O)CCC3)n1 [Example 5, 5-chloro-N2-(2-methoxy-4-(4-(4-methylpiperazin-1-yl)piperidin-1-yl)phenyl)-N4-(1-(methylsulfonyl)-1,2,3,4-tetrahydroquinolin-8-yl)pyrimidine-2,4-diamine]	< 30 nM	–	< 30 nM	3 nM	< 30 nM	< 1 nM	< 30 nM
